{"source": "patent US20220290200A1", "about": "“GENETICALLY MODIFIED HOST CELLS PRODUCING GLYCOSYLATED CANNABINOIDS” (OCTARINE BIO IVS, priority 2019, published 2022)", "key": {"[1]": {"experiment": "Chemical stability under acidic, alkaline, oxidative and heat stress (HPLC)", "conditions": "for % of substrate remaining in solution: HPLC, relative to control at 30° C. pH 7.0; for percent remaining after 24 h exposure relative to a control at ambient conditions: alkaline conditions (NaOH, final pH 12.5); for release of CBD aglycone (stability of the glucoside bond): any condition (acidic, alkaline, oxidative, heat)", "procedure": "Alternatively, chemical stability of cannabinoid glycosides was determined under alkaline, acidic, oxidative and heat stress as follows. 25 mM stock solutions of cannabinoids and cannabinoid glycosides were prepared in 100% methanol. 15 μL is mixed with 5 μL of 400 mM HCl solution (final pH=1.1), 400 mM NaOH solution (Final pH=12.5), 12% H2O2 solution (final concentration 3%), or H2O pH 7.0. […] A control under ambient conditions was also prepared where 15 μL of the cannabinoid or cannabinoid glycoside was added to 5 μL H2O pH 7.0 and incubated at 30° C. After 24 h samples were placed on ice and 60 μL of ice-cold 100% methanol is added to each sample. Samples were centrifuged and transferred to HPLC vials for analysis. The remaining concentration of cannabinoid or cannabinoid glycoside was quantified by comparing to authentic analytical standards. Determining the presence of degradation products were determined by comparing with authentic analytical standards.\nCBD, CBD-1′-O-β-D-glucoside (OB1), and CBD-1′-O-β-D-glucosyl-3′-O-β-D-glucoside (OB6) were exposed to oxidative, alkaline, acidic and heat conditions as described above, and their degradation quantified by HPLC analysis by measuring the amount of compound remaining in solution after 24 h exposure to a given condition and expressed as percent (%) remaining after 24 h exposure relative to a control at ambient conditions. Also measured was the accumulation of the known CBD degradation product THC, expressed as percent accumulated after 24 h exposure."}, "[2]": {"experiment": "Hepatic microsomal stability", "conditions": "for t1/2 / CLint: human liver microsomes 0.5 mg/mL, 1 μM compound, NADPH and UDP-glucuronic acid", "procedure": "Hepatic microsomal stability of cannabinoid glycosides were determined by incubating 2 μM of molecule with HepaRG™ human liver microsomes (Sigma) supplemented with NADPH at 37° C. Samples were taken at 0, 5, 15, 30, 45, and 60 minute intervals and analyzed as described above. Verapamil (rapid clearance) and Diazepam (low clearance) were used as references.\nAlternatively, hepatic microsomal stability of cannabinoid glycosides was determined as follows. HepaRG™ pooled human liver microsomes (Sigma) (final protein concentration=0.5 mg/mL) were mixed with alamethicin (25 μg/mg), 0.1 M phosphate buffer (pH=7.4) and the test compound (1 μM final in DMSO) and incubated at 37° C. prior to addition of NADPH (final concentration 1 mM) and UDP-glucuronic acid (final concentration 1 mM) to initiate the reaction. The compound was incubated for 0, 5, 15, 30, and 45 minutes and the reaction terminated by adding acetonitrile in a 1:3 ratio (v/v). Reactions were centrifuged at 3000 rpm for 20 min at 4° C. to precipitate the protein. Following protein precipitation, internal standards were added to the sample supernatants and analyzed by LC-MS to measure the concentration of compound remaining at each time point, quantification was achieved by comparison to authentic analytical standards.\nIn vitro hepatic microsomal stability was performed for CBD, CBD-1′-O-β-D-glucoside (OB1), and CBD-1′-O-β-D-glucosyl-3′-O-β-D-glucoside (OB6) as described above and the intrinsic clearance (CLint) and half-life (t1/2) of each compound was determined."}}, "data": [{"molecule": "C=C(C)[C@@H]1CCC(C)=C[C@H]1c1c(O)cc(CCCCC)cc1O", "note": "[CBD, cannabidiol, reference compound]", "values": [{"measurement": "% of substrate remaining in solution", "setting": "[1]; Acidic (pH 1.1), 24 h", "value": 63.90, "unit": "%"}, {"measurement": "% of substrate remaining in solution", "setting": "[1]; Alkaline (pH 12.5), 24 h", "value": 2.26, "unit": "%"}, {"measurement": "% of substrate remaining in solution", "setting": "[1]; Heat (60° c.), 24 h", "value": 72.76, "unit": "%"}, {"measurement": "% of substrate remaining in solution", "setting": "[1]; Oxidative (H2O2 3%), 24 h", "value": 70.56, "unit": "%"}, {"measurement": "accumulation of degradation product THC", "setting": "[1]; acidic and alkaline conditions, 24 h", "value": "degrades to THC"}, {"measurement": "percent remaining after 24 h exposure relative to a control at ambient conditions", "setting": "[1]; 30° C.", "value": 2.26, "unit": "%"}, {"measurement": "stability under stress conditions", "setting": "[1]; all conditions tested (acidic, alkaline, oxidative, heat), 24 h", "value": "unstable under all conditions tested"}, {"measurement": "t1/2", "setting": "[2]", "value": 3.77, "unit": "min"}, {"measurement": "microsomal CLint at 1 μM", "setting": "[2]; human, microsomes, pH 7.4", "value": "368 ± 0.684", "unit": "µL/min/mg"}]}, {"molecule": "C=C(C)[C@@H]1CCC(C)=C[C@H]1c1c(O)cc(CCCCC)cc1O[C@@H]1O[C@H](CO)[C@@H](O)[C@H](O)[C@H]1O", "note": "[OB1, CBD-1′-O-β-D-glucoside]", "values": [{"measurement": "% accumulation of THC-1′-O-β-D-glucoside (OB20)", "setting": "[1]; Acidic (pH 1.1), 24 h", "value": 1.61, "unit": "%"}, {"measurement": "% of substrate remaining in solution", "setting": "[1]; Acidic (pH 1.1), 24 h", "value": 80.02, "unit": "%"}, {"measurement": "% of substrate remaining in solution", "setting": "[1]; Alkaline (pH 12.5), 24 h", "value": 100.27, "unit": "%"}, {"measurement": "% of substrate remaining in solution", "setting": "[1]; Heat (60° c.), 24 h", "value": 84.35, "unit": "%"}, {"measurement": "% of substrate remaining in solution", "setting": "[1]; Oxidative (H2O2 3%), 24 h", "value": 92.98, "unit": "%"}, {"measurement": "accumulation of degradation product THC-1′-O-β-D-glucoside (OB20)", "setting": "[1]; acidic conditions (HCl, final pH 1.1), 30° C., 24 h", "value": "a small amount of THC-1′-O-β-D-glucoside (OB20) was detected"}, {"measurement": "percent remaining after 24 h exposure relative to a control at ambient conditions", "setting": "[1]; 30° C.", "value": 100, "unit": "%"}, {"measurement": "release of CBD aglycone (stability of the glucoside bond)", "setting": "[1]; 24 h", "value": "no CBD aglycone was detected"}, {"measurement": "CLint", "setting": "[2]", "value": "1110 ± 0.312", "unit": "μL/min/mg protein"}, {"measurement": "t1/2", "setting": "[2]", "value": 1.24, "unit": "min"}]}, {"molecule": "C=C(C)[C@@H]1CCC(C)=C[C@H]1c1c(O[C@@H]2O[C@H](CO)[C@@H](O)[C@H](O)[C@H]2O)cc(CCCCC)cc1O[C@@H]1O[C@H](CO)[C@@H](O)[C@H](O)[C@H]1O", "note": "[OB6, CBD-1′-O-β-D-glucosyl-3′-O-β-D-glucoside]", "values": [{"measurement": "% of substrate remaining in solution", "setting": "[1]; Acidic (pH 1.1), 24 h", "value": 91.90, "unit": "%"}, {"measurement": "% of substrate remaining in solution", "setting": "[1]; Alkaline (pH 12.5), 24 h", "value": 100.62, "unit": "%"}, {"measurement": "% of substrate remaining in solution", "setting": "[1]; Heat (60° c.), 24 h", "value": 80.79, "unit": "%"}, {"measurement": "% of substrate remaining in solution", "setting": "[1]; Oxidative (H2O2 3%), 24 h", "value": 74.98, "unit": "%"}, {"measurement": "percent remaining after 24 h exposure relative to a control at ambient conditions", "setting": "[1]; 30° C.", "value": 100, "unit": "%"}, {"measurement": "release of CBD aglycone (stability of the glucoside bond)", "setting": "[1]; 24 h", "value": "no CBD aglycone was detected"}, {"measurement": "accumulation of THC or THC-glucoside", "setting": "[1]; any of the conditions (acidic, alkaline, oxidative, heat), 24 h", "value": "no THC or THC-glucoside was detected"}, {"measurement": "decrease in intrinsic clearance versus CBD", "setting": "[2]; human liver microsomes", "value": 50, "unit": "fold"}, {"measurement": "increase in half-life versus CBD", "setting": "[2]; human liver microsomes", "value": 50, "unit": "fold"}, {"measurement": "CLint", "setting": "[2]", "value": "7.39 ± 1.32", "unit": "μL/min/mg protein"}, {"measurement": "t1/2", "setting": "[2]", "value": 188, "unit": "min"}]}]}
